The nature of one series: Solubilities. The class given is physicochemical.
The subject of a further series is Gram-positive bacteria. The series is described as follows: Antimicrobial spectrum. The class given is cell-based. The text has this:
(§1) The assay is a standard tube dilution assay using BHI (Brain Heart Infusion medium-Difco). "UC" is a registered trademark of The Upjohn Company Culture Collection.

In a further series the test system is Escherichia coli. The series is described as follows: MIC, standard tube dilution assay, BHI medium. The class given is cell-based. Conditions: UC311, UC 311, read-out: Minimum inhibitory concentration.
Excerpt: as §1

The next series relates to Enterobacter cloacae. The series is described as follows: MIC, standard tube dilution assay, BHI medium. The class given is cell-based. Conditions: UC9382, UC 9382, read-out: Minimum inhibitory concentration.
Excerpt: as §1

Another series concerns Pseudomonas aeruginosa. The series can be described thus: MIC, standard tube dilution assay, BHI medium. The class given is cell-based.
Excerpt: as §1

Another series has as its system Serratia marcescens. The series can be described thus: MIC, standard tube dilution assay, BHI medium. Type of series: cell-based. Conditions: UC6888, UC 6888, read-out: Minimum inhibitory concentration.
Excerpt: as §1

In a further series the test system is Streptococcus pyogenes. The series can be described thus: MIC, standard tube dilution assay, BHI medium. The class given is cell-based. Conditions: UC152, UC 152, read-out: Minimum inhibitory concentration.
Excerpt: as §1

A further series has as its system Klebsiella pneumoniae. The series is described as follows: MIC, standard tube dilution assay, BHI medium. Type of series: cell-based. Conditions: UC58, UC 58, read-out: Minimum inhibitory concentration.
Excerpt: as §1

In the next series the test system is Staphylococcus aureus. The series can be described thus: MIC, standard tube dilution assay, BHI medium. The class given is cell-based.
Excerpt: as §1

In a further series the test system is Streptococcus pneumoniae. The series is described as follows: MIC, standard tube dilution assay, BHI medium. The class given is cell-based. Conditions: UC41, UC 41, read-out: Minimum inhibitory concentration.
Excerpt: as §1

In a further series the test system is Streptococcus faecalis. The series is described as follows: MIC, standard tube dilution assay, BHI medium. Type of series: cell-based. Conditions: Enterococcus faecalis, UC694; UC 694; read-out: Minimum inhibitory concentration.
Excerpt: as §1

For the next series, the system named is Citrobacter freundii. The series is described as follows: MIC, standard tube dilution assay, BHI medium. The class given is cell-based. Conditions: UC3507, UC 3507, read-out: Minimum inhibitory concentration.
Excerpt: as §1

Another series deals with Haemophilus influenzae. The series can be described thus: MIC, standard tube dilution assay, BHI medium. Type of series: cell-based.
Excerpt: as §1

SMILES strings stand for the structures. Values after ≈ are worked out from the molar mass of the structure shown. Like-named read-outs stand apart in the source and are kept apart here. Where only a bound is given, the exact number is not on record here.

Turning to `C=C/C(C)=C/C1(CC)SC(=O)C(CC(N)=O)=C1O` (stereo not shown) [U-68,204], the Solubility entry is “soluble in most organic solvents” in the series “Solubilities” (most organic solvents) and “not soluble in water” in the series “Solubilities” (water). In the series with Gram-positive bacteria, the “Activity against various Gram-positive bacteria” value is reported as “active”. The MIC in the series with Escherichia coli is 600 µg/mL (≈ 2240 µM); with Enterobacter cloacae, over 600 µg/mL; in the series with Pseudomonas aeruginosa (UC6432, UC 6432, read-out: Minimum inhibitory concentration), over 600 µg/mL; in the series on Pseudomonas aeruginosa (UC6676, UC 6676, read-out: Minimum inhibitory concentration), over 600 µg/mL; in the series on Pseudomonas aeruginosa (UC6954, UC 6954, read-out: Minimum inhibitory concentration), over 600 µg/mL; in the series with Pseudomonas aeruginosa (UC6955, UC 6955, read-out: Minimum inhibitory concentration), 19 µg/mL (≈ 71.1 µM). The MIC was 37.5 µg/mL (≈ 140 µM) with Pseudomonas aeruginosa (UC9027, UC 9027, read-out: Minimum inhibitory concentration); over 600 µg/mL in the series on Serratia marcescens; over 600 µg/mL with Streptococcus pyogenes; 300 µg/mL (≈ 1120 µM) with Klebsiella pneumoniae; 75 µg/mL (≈ 281 µM) in the series on Staphylococcus aureus (UC76, UC 76, read-out: Minimum inhibitory concentration); 75 µg/mL (≈ 281 µM) in the series on Staphylococcus aureus (UC3665, UC 3665, read-out: Minimum inhibitory concentration). Also, the MIC was 75 µg/mL (≈ 281 µM) in the series on Staphylococcus aureus (UC6675, UC 6675, read-out: Minimum inhibitory concentration); 600 µg/mL (≈ 2240 µM) with Staphylococcus aureus (UC6685, UC 6685, read-out: Minimum inhibitory concentration); over 600 µg/mL in the series on Streptococcus pneumoniae; over 600 µg/mL in the series with Streptococcus faecalis; over 600 µg/mL in the series on Citrobacter freundii; 9.4 µg/mL (≈ 35.2 µM) in the series on Haemophilus influenzae (UC6482, UC 6482, read-out: Minimum inhibitory concentration). Also, in the series on Haemophilus influenzae (UC6483, UC 6483, read-out: Minimum inhibitory concentration), the MIC is 19 µg/mL (≈ 71.1 µM).
